Broadly, the NOAEL is the highest dose or exposure tested at which no adverse effect was seen. The term tissue uptake denotes the percentage of the injected dose found per gram of tissue. By IC50 is commonly meant the concentration that gives 50% inhibition. Read a low IC50 as higher potency.

Where a SMILES comes first, the peptide text is derived from it. Bridges are numbered along the chain shown (N, C = ends). [ ]: non-standard residue; d: D form. The star is where a group is joined. X2 = O=C(O)CN1CCN(CC(=O)O)CCN([C@H](CCC(=O)*)C(=O)O)CC1; dPhe(4-NHCONH2) = NC(=O)Nc1ccc(C[C@@H](N)C(=O)O)cc1; Phe(4-Cl) = N[C@@H](Cc1ccc(Cl)cc1)C(=O)O A value given as a limit tells only on which side of the number the result lay.

We go through 4 compounds from US20260151517A1, “SOMATOSTATIN RECEPTOR-TARGETING RADIOPHARMACEUTICALS AND USES THEREOF” (Nuclidium AG, priority 2024, published 2026).

The nature of series [1]: Extended single-dose toxicity study (GLP, microdose approach). The series is classed as in vivo, mice. The conditions noted are these: both sexes, C57BL/6NCrl, mouse, in vivo, iv, 5 mg/kg; single i.v. dose, 14 days observation, mice; read-out: no adverse effect level (NOAEL). As for the experimental part:
(§1) The precursor-induced toxicity was evaluated using the non-radiolabeled precursor in line with the IAEA and EMA guidelines. The non-clinical safety study was performed using the microdose approach I described in the ICH guideline M3 (R2). The study was designed as an extended single-dose toxicity study in one rodent species and performed under GLP conditions. NODAGA-LM3 toxicity was evaluated after intravenous administration on day 1 of the study, followed by an observation period of 14 days. 60 (30 males and 30 females) C57BL/6NCrl mice were divided into one dose group and one control group. The test item was administered once by i.v, administration into the tail vein.
(§2) In each of the two groups, 20 male and 20 female main animals were euthanized the day after dosing, whereas 10 male and 10 female recovery animals were kept for an observation period of 14 days after dosing to detect possible delayed occurrence or persistence of, or recovery from toxic effects. Three extra mice per sex were included as replacement animals. The dose group animals were injected with a 5 mg/kg vector in a 5 mL/kg dose volume. The control group underwent injection of the vehicle alone (5 mL/kg). The animals were examined twice daily for toxicity and morbidity/mortality signs. All animals were sacrificed for necropsy. Blood was taken before necropsy for analysis of hematologic and clinical biochemistry parameters. Organs were collected, weighted, and preserved in neutral buffered formaldehyde (4%) for histopathological examination. […] No effects on body weight gain or food consumption were noted. […] Therefore, these differences were considered to be unrelated to the test substance. […] All these changes were transitory and considered non-adverse.

The subject of a further series is C57BL/6NCrl mice. The description is as above. In kind it is in vivo. As for the experimental part: as §1, §2
Series [2] in a line: PET/CT imaging after [^61Cu]CuCl2 injection. The series is classed as in vivo.
Series [3] in a line: Specificity (blocking) study with excess DOTA-LM3. The conditions noted are these: athymic nude Foxn1^nu, mouse, total radioactivity.
Protocol: (§4) Unless otherwise specified, the in vivo studies were performed on athymic nude Foxn1^nu 4-6 weeks-old mice. Animals were injected in the shoulder with HEK-SST2 cells (10^7 cells/200 μL) suspended in PBS. The in vivo experiments were performed when tumors reached a volume between 100-500 mm. At the intervention, all mice were between 7 and 11 weeks old.
(§5) The specificity study was performed parallel to pharmacokinetics studies. For this reason, NODAGA-LM3 was radiolabeled with ^64Cu.
(§6) The specificity of [^64Cu]Cu-NODAGA-LM3 for SSTR2-expressing tissues was evaluated in HEK-SST2 xenograft mice through a blocking study. The mice were administered with 0.15 MBq of [^64Cu]Cu-NODAGA-LM3 co-injected with a 2000-fold excess of DOTA-LM3 as a blocking agent. The mice were sacrificed 4 hours post-injection, and the organs were collected. weighed, and counted in a gamma counter.
A further series concerns HEK-SST2 xenograft mice. The experiment in a line: Specificity (blocking) study with excess DOTA-LM3. The settings on record: inferred from low, stable liver accumulation.
The target in a further series is T1, SSTR1 (Homo sapiens, UniProt P30872).
T1 construct: expressed in transfected cells
The experiment in a line: Binding affinity (IC50) to SSTR subtypes, displacement of [Leu,D-Trp,^125I-Tyr]-somatostatin-28. The conditions noted are these: membrane pellet sections of SSTR1-expressing cells. As for the experimental part: (§3) The binding affinity of Cu-NODAGA-LM3 was determined by measuring the IC50 by labelling the precursor with natural copper (^natCu). The IC50 value is the concentration in which 50% of the specific binding of a reference radioligand to the tested molecule is inhibited. The universal somatostatin radioligand [Leu,D-Trp,^125I-Tyr]-somatostatin-28 was used as a reference radioligand. The assay was performed on […] cryostat sections of membrane pellets prepared from SSTR1-, SSTR2-, SSTR3-, SSTR4-, and SSTR5-expressing cells incubated with increasing concentrations of ^natCu-NODAGA-LM3. IC50 values for each SSTR subtype were calculated by mathematically extracting the concentration of the tested molecule, causing 50% displacing of the specific bounded [Leu,D-Trp,^125I-Tyr]-somatostatin-28.

The target of another series is T2, SSTR2 (Homo sapiens, UniProt P30874).
T2 construct: expressed in transfected cells
The series is described as above. The conditions noted are these: membrane pellet sections of SSTR2-expressing cells. As for the experimental part: as §3

The next series concerns the target T3, SSTR3 (Homo sapiens, UniProt P32745).
T3 construct: expressed in transfected cells
The series is described as above. The conditions noted are these: membrane pellet sections of SSTR3-expressing cells. As for the experimental part:
as §3

The target of a further series is T4, SSTR4 (Homo sapiens, UniProt P31391).
T4 construct: expressed in transfected cells
The description is as above. The settings on record: membrane pellet sections of SSTR4-expressing cells. As for the experimental part: as §3

For the next series, the target named is T5, SSTR5 (Homo sapiens, UniProt P35346).
T5 construct: expressed in transfected cells
Described as above. The settings on record: membrane pellet sections of SSTR5-expressing cells. As for the experimental part: as §3

T1 sequence (P30872 whole entry): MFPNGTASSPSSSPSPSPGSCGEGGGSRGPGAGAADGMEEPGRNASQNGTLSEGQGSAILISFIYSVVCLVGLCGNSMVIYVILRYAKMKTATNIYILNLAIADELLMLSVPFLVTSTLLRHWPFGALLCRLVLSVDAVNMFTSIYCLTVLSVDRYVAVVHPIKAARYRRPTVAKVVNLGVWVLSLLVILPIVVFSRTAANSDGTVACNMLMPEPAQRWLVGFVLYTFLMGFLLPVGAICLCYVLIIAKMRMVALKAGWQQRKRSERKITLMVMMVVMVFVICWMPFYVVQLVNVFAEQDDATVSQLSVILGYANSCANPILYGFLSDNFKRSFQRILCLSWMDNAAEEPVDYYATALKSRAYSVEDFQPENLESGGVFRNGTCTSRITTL
T3 sequence (P32745 whole entry): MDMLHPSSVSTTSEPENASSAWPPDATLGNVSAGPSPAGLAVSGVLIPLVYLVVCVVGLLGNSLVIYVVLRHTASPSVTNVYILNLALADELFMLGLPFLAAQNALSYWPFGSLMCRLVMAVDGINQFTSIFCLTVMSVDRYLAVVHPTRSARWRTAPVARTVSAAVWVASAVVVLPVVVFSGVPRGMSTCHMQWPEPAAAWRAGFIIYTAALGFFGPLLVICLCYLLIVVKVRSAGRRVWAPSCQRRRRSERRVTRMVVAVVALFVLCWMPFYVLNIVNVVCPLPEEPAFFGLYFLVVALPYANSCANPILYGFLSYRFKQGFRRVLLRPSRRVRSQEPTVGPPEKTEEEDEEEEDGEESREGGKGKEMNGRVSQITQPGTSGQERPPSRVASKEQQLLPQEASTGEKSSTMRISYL
T2 sequence (P30874 whole entry): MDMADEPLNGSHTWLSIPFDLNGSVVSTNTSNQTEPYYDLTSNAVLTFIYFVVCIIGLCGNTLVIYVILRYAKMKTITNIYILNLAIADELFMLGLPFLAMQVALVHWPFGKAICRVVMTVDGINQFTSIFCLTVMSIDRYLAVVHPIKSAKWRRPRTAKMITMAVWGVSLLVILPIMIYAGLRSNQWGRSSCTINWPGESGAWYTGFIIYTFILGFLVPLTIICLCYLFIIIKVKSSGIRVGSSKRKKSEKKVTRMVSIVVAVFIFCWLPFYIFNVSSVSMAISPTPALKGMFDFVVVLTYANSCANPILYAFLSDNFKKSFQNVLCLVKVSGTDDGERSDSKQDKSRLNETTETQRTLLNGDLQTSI
T4 sequence (P31391 whole entry): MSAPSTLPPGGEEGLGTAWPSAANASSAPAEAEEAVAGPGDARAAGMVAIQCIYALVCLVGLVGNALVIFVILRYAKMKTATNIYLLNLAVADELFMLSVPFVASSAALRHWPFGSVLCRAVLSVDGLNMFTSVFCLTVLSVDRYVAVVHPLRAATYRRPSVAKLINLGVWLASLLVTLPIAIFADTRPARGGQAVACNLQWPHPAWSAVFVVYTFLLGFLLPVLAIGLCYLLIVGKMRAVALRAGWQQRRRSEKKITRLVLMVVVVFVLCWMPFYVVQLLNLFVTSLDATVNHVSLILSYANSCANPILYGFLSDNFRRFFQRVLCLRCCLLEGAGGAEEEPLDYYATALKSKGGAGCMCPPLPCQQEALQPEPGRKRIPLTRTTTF
T5 sequence (P35346 whole entry): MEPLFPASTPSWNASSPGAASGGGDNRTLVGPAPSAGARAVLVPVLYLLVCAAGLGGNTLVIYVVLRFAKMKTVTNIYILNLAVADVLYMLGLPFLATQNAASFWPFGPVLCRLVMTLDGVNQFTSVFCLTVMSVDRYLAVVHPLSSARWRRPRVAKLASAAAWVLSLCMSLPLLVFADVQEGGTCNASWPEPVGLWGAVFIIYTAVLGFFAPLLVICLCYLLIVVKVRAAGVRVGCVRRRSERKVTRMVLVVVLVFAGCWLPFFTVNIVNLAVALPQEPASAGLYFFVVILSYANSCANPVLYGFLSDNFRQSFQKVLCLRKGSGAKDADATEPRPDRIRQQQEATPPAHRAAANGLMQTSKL
Protocol for HEK-SST2 xenograft mice: as §4, §5, §6

As to `C[C@@H](O)[C@@H]1NC(=O)[C@H](CCCCN)NC(=O)[C@@H](Cc2ccc(NC(N)=O)cc2)NC(=O)[C@H](Cc2ccc(O)cc2)NC(=O)[C@H](NC(=O)[C@H](Cc2ccc(Cl)cc2)NC(=O)CC[C@H](C(=O)O)N2CCN(CC(=O)O)CCN(CC(=O)O)CC2)CSSC[C@@H](C(=O)N[C@H](Cc2ccc(O)cc2)C(N)=O)NC1=O` [NODAGA-LM3, 2,2′-(7-((R)-4-(((S)-1-(((4R,7S,10S,13R,16S,19S)-4-(((R)-1-amino-3-(4-hydroxyphenyl)-1-oxopropan-2yl)carbamoyl)-10-(4-aminobutyl)-16-(4-hydroxybenzyl)-7-((R)-1-hydroxyethyl)-6,9,12,15,18-pentaoxo-13-(4-ureidobenzyl)-1,2-dithia-5,8,11,14,17-pentaazacycloicosan-19-yl)amino)-3-(4-chlorophenyl)-1-oxopropan-2-yl)amino)-1-carboxy-4-oxobutyl)-1,4,7-triazonane-1,4-diyl)diacetic acid] (X2-[Phe(4-Cl)][dC]Y[dPhe(4-NHCONH2)]KTC[dY]-NH2; disulfide 2-7), the NOAEL at 14 days in series [1] was 5 mg/kg. The delayed toxicity result in the series with C57BL/6NCrl mice (5 mg/kg i.v., 14 days observation) was “no indication of delayed toxicity”. For the same compound, in the series with C57BL/6NCrl mice (5 mg/kg i.v., mice), the “adverse systemic or local effects” value is “did not cause any adverse systemic or local effects”, the “body weight gain or food consumption” value is on record as “No effects”, the clinical tolerability result is recorded as “clinically well-tolerated” and the mortality result was “no treatment-related mortality”. Besides, the “macroscopic or microscopic findings” value with C57BL/6NCrl mice (5 mg/kg i.v., necropsy and histopathology) was “No macroscopic or microscopic findings that could be attributed to treatment”. For the same compound, the “hematology, white cell count” value in the series on C57BL/6NCrl mice (5 mg/kg i.v., transitory, considered non-adverse) was “increased white cell count in male mice”. Also, the “safety ratio vs intended maximum patient dose 0.8 μg/kg” value in the series with C57BL/6NCrl mice (considering the dose conversion factor) is on record as “higher than 1,000 times”.
For the compound `[Cl][61Cu][Cl]` [[^61Cu]CuCl2], the “excretion route of free isotopes” value in series [2] is reported as “excreted mainly through the liver”.
In the case of `C[C@@H](O)[C@@H]1NC(=O)[C@H](CCCCN)NC(=O)[C@@H](Cc2ccc(NC(N)=O)cc2)NC(=O)[C@H](Cc2ccc(O)cc2)NC(=O)[C@H](NC(=O)[C@H](Cc2ccc(Cl)cc2)NC(=O)CC[C@H](C(=O)O)N2CCN(CC(=O)O)CCN(CC(=O)O)CC2)CSSC[C@@H](C(=O)N[C@H](Cc2ccc(O)cc2)C(N)=O)NC1=O` [[^64Cu]Cu-NODAGA-LM3, metal not drawn] (X2-[Phe(4-Cl)][dC]Y[dPhe(4-NHCONH2)]KTC[dY]-NH2; disulfide 2-7), the tissue uptake at 4 h in [3] (bone, 0.15 MBq, Uptake Bone, 4 hours post-injection, non-blocking) amounted to 0.39 ± 0.07 %ID/g; in series [3] (bone, with DOTA-LM3, 2000-fold excess, co-injected as blocking agent, Uptake Bone, 4 hours blocking, co-injected 2000-fold excess of DOTA-LM3), 0.01 ± 0.01 %ID/g; in series [3] (pancreas, 0.15 MBq, Uptake Pancreas, 4 hours post-injection, non-blocking) it was 0.55 ± 0.1 %ID/g; in series [3] (pancreas, with DOTA-LM3, 2000-fold excess, co-injected as blocking agent, Uptake Pancreas, 4 hours blocking, co-injected 2000-fold excess of DOTA-LM3) it was 0.12 ± 0.03 %ID/g; in [3] (stomach, 0.15 MBq, Uptake Stomach, 4 hours post-injection, non-blocking) it was 1.31 ± 0.55 %ID/g; in [3] (stomach, with DOTA-LM3, 2000-fold excess, co-injected as blocking agent, Uptake Stomach, 4 hours blocking, co-injected 2000-fold excess of DOTA-LM3) it was 0.43 ± 0.14 %ID/g. Moreover, the tissue uptake at 4 h was found to be 37.9 ± 3.43 %ID/g in series [3] (tumor, 0.15 MBq, Uptake Tumor, 4 hours post-injection, non-blocking) and 0.52 ± 0.18 %ID/g in [3] (tumor, with DOTA-LM3, 2000-fold excess, co-injected as blocking agent, Uptake Tumor, 4 hours blocking, co-injected 2000-fold excess of DOTA-LM3). Besides, the in vivo stability result in the series on HEK-SST2 xenograft mice is “generally stable in vivo, with limited transchelation phenomena”.
Take `C[C@@H](O)[C@@H]1NC(=O)[C@H](CCCCN)NC(=O)[C@@H](Cc2ccc(NC(N)=O)cc2)NC(=O)[C@H](Cc2ccc(O)cc2)NC(=O)[C@H](NC(=O)[C@H](Cc2ccc(Cl)cc2)NC(=O)CC[C@H](C(=O)O)N2CCN(CC(=O)O)CCN(CC(=O)O)CC2)CSSC[C@@H](C(=O)N[C@H](Cc2ccc(O)cc2)C(N)=O)NC1=O` [^natCu-NODAGA-LM3, metal not drawn] (X2-[Phe(4-Cl)][dC]Y[dPhe(4-NHCONH2)]KTC[dY]-NH2; disulfide 2-7): the IC50 was at least 1000 nM on SSTR1; 6.7 ± 1.5 nM at SSTR2; at least 1000 nM on SSTR3; at least 1000 nM at SSTR4; at least 1000 nM on SSTR5.
